Non-standard residues stand in square brackets, D forms with d. Residues, ends and D or L forms follow the SMILES beside them. pGlu = O=C1CC[C@@H](C(=O)O)N1

The test deals with T1, ACE (rabbit lung-derived) (Oryctolagus cuniculus, UniProt P12822).
T1 construct: 0.3 U/ml of ACE (rabbit lung-derived, manufactured by SIGMA); purchased SIGMA; host or cells: rabbit lung (tissue-derived)
T1 sequence (P12822 34-1310): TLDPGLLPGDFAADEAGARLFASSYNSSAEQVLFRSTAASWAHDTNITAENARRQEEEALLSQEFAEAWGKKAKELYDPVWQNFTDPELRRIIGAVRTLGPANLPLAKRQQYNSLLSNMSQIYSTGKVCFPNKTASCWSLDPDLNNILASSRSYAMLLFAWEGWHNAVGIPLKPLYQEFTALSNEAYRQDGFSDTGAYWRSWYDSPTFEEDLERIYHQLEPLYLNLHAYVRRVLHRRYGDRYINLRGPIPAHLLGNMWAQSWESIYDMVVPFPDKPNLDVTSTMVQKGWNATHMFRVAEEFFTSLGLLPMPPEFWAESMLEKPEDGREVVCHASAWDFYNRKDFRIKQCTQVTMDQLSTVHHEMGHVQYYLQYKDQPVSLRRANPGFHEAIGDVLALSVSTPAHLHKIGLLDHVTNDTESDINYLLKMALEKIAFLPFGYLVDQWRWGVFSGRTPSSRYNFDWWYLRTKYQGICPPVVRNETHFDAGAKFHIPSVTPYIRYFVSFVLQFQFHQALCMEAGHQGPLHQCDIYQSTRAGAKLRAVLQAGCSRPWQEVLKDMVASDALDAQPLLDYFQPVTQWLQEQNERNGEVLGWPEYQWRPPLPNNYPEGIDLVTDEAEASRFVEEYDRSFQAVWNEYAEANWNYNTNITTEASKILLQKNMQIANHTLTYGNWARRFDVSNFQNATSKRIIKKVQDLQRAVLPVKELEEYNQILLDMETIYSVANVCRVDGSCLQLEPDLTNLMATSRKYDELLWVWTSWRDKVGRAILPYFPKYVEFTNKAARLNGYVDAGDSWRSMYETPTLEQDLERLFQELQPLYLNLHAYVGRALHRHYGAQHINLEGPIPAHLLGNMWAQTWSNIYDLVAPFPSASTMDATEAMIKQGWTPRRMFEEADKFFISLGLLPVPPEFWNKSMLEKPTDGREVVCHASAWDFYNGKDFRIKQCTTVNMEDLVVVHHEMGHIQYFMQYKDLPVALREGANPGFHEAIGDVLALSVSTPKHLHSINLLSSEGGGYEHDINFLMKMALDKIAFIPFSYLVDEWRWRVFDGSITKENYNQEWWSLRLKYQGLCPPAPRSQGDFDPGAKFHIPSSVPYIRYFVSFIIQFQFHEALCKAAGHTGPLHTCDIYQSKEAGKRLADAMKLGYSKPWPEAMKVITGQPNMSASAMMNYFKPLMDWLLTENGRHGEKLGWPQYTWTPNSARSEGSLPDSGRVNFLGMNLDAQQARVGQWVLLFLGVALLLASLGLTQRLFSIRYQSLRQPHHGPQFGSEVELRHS
Briefly: ACE inhibitory activity (modified method of Yamamoto et al., Hippuryl-His-Leu substrate). Type of test: biochemical. Conditions: pH 8.3, 37° C., 30 minutes, chemically synthesized peptides. How it is done: ACE inhibitory activity of the peptides obtained by the aforementioned synthesis method was measured. As the measuring method, it was carried out by a method in which the method of Yamamoto et al. (Setsuko Yamamoto et al., Journal of the Japan Society of Chest Diseases, 1980, 18, p. 297-302) was partially modified. Namely, 140 μl of sample solution, 10 μl of enzyme solution (0.3 U/ml of ACE (rabbit lung-derived, manufactured by SIGMA) and 50 mM borate buffer (pH 8.3) were added to 100 μl of a substrate solution (12.5 mM Hippuryl-His-Leu (manufactured by SIGMA), 100 mM borate buffer pH 8.3, 1M NaCl), and the reaction was carried out at 37° C. for 30 minutes. Subsequently, the reaction was stopped by adding 250 μl of 1 N hydrochloric acid and, after stirring by adding 1.5 ml of ethyl acetate and subsequent centrifugation, 1 ml of the ethyl acetate layer was concentrated and dried by centrifugal concentration followed by dissolution in 1 ml of ultrapure water to measure the absorbance at 228 nm. The ACE inhibitory ratio is represented by the following formula. ACE inhibitory ratio (%)={1−(ODs−ODsb)/(ODc−ODcb)}×100
In this connection, ODs is the absorbance when the reaction was carried out by adding the enzyme solution to a sample as described above; ODsb is the absorbance when ultrapure water was added instead of the enzyme solution; ODc is the absorbance when ultrapure water was added instead of the sample solution; and ODcb is the absorbance when ultrapure water was added instead of the enzyme solution and sample solution. Additionally, the concentration of a sample which gives 50% of the enzyme activity inhibitory ratio on this reaction system is regarded as the IC50 value.
For orientation: IC50 means the midpoint of a concentration-inhibition curve. On to `O=C(O)[C@H](Cc1c[nH]c2ccccc12)NC(=O)[C@@H]1CCCN1` [Pro-Trp] (H-Pro-Trp-OH; N-terminus and C-terminus assumed), for which the IC50 came to 186 µM.

Take `NC(=O)C[C@H](N)C(=O)N[C@@H](Cc1c[nH]c2ccccc12)C(=O)O` [Asn-Trp] (H-Asn-Trp-OH; N-terminus and C-terminus assumed): the IC50 was 25 µM.

`C[C@@H](O)[C@H](NC(=O)[C@@H](N)Cc1ccc(O)cc1)C(=O)O` [Tyr-Thr] (H-Tyr-Thr-OH) registered an IC50 of 35 µM.

Take `O=C1CC[C@@H](C(=O)N2CCC[C@H]2C(=O)O)N1` [pyroGlu-Pro] ([pGlu]-Pro-OH; C-terminus assumed): inhibition was half-maximal at 106 µM (IC50).

Values taken from patent US9006171B2, “Angiotensin converting enzyme inhibitory peptide” (Kikkoman Corporation, priority 2009, dated 2015).
